In ChEMBL document CHEMBL1201862, “PubChem BioAssay data set” (2004):
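These data come from cells grown in 96-well plates and exposed to compound for 48 hours at five concentrations. At the GI50, growth is halved.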 Calls of active or inactive are those of the source. Cut-off read from the data, not from the text of the source: active = GI50 up to about 1.1 µM and inactive = higher.

Tests used:
Assay in all cases: inhibition of tumour cell growth, NCI panel, 48 h
A549 = system: A549
ACHN = system: ACHN
CAKI-1 = system: CAKI-1
CCRF-CEM = system: CCRF-CEM
COLO 205 = system: COLO 205
DU-145 = system: DU-145
HCT-116 = system: HCT-116
HCT-15 = system: HCT-15
HOP-92 = system: HOP-92
IGROV-1 = system: IGROV-1
M14 = system: M14
MOLT-4 = system: MOLT-4
Malme-3M = system: Malme-3M
NCI/ADR-RES = system: NCI/ADR-RES
OVCAR-3 = system: OVCAR-3
OVCAR-4 = system: OVCAR-4
RXF 393 = system: RXF 393
SK-OV-3 = system: SK-OV-3
T47D = system: T47D
UO-31 = system: UO-31

Measured: GI50

CSc1nc(C)c2c(n1)N(c1ccc(Cl)cc1)CC2
active: UO-31 0.342 µM
> 100 µM: HCT-15
inactive: A549 > 100 µM | ACHN > 100 µM | CAKI-1 > 100 µM | CCRF-CEM > 100 µM | COLO 205 > 100 µM | DU-145 > 100 µM | HCT-116 > 100 µM | HOP-92 > 100 µM | IGROV-1 > 100 µM | M14 > 100 µM | MOLT-4 > 100 µM | Malme-3M > 100 µM | NCI/ADR-RES > 100 µM | OVCAR-3 > 100 µM | OVCAR-4 61.4 µM | RXF 393 > 100 µM | SK-OV-3 > 100 µM | T47D > 100 µM

Cc1cc(-c2nc3cc(F)ccc3s2)ccc1NC(=O)C(C)N (stereo not given)
active: CCRF-CEM 0.64 µM | IGROV-1 0.0408 µM | OVCAR-4 1.02 µM | T47D 0.0847 µM
2.65 µM: HCT-15
inactive: A549 3.77 µM | ACHN 3.73 µM | CAKI-1 3.28 µM | COLO 205 9.23 µM | DU-145 4.42 µM | HCT-116 3.29 µM | HOP-92 3.97 µM | M14 4.93 µM | MOLT-4 3.33 µM | Malme-3M 15.2 µM | NCI/ADR-RES 4.79 µM | OVCAR-3 3.41 µM | RXF 393 3.75 µM | SK-OV-3 4.1 µM | UO-31 3.7 µM

COc1ccc2cc(/C=N\NC(=O)Nc3ccc([N+](=O)[O-])cc3)ccc2c1
15.1 µM: HCT-15
inactive: A549 11.2 µM | ACHN 13.9 µM | CAKI-1 13.5 µM | CCRF-CEM > 10 µM | COLO 205 13.1 µM | DU-145 7.41 µM | HCT-116 11.6 µM | HOP-92 16 µM | IGROV-1 13.8 µM | M14 22.6 µM | MOLT-4 16.5 µM | Malme-3M 12.3 µM | NCI/ADR-RES 13.6 µM | OVCAR-3 18.4 µM | OVCAR-4 5.04 µM | RXF 393 11.2 µM | SK-OV-3 11.9 µM | T47D 14.2 µM | UO-31 13.6 µM

O=C(O)[C@@H]1C[C@@H](O)CN1C(=O)OCc1ccccc1
> 100 µM: HCT-15
inactive: A549 > 100 µM | ACHN > 100 µM | CAKI-1 > 100 µM | CCRF-CEM > 100 µM | COLO 205 > 100 µM | DU-145 > 100 µM | HCT-116 > 100 µM | HOP-92 > 100 µM | IGROV-1 > 100 µM | M14 > 100 µM | MOLT-4 > 100 µM | Malme-3M > 100 µM | NCI/ADR-RES > 100 µM | OVCAR-3 > 100 µM | OVCAR-4 > 100 µM | RXF 393 > 100 µM | SK-OV-3 > 100 µM | T47D > 100 µM | UO-31 > 100 µM

COc1ccc(NC(=O)CSC(=O)c2ccccc2)c(SCCSSCCSc2cc(OC)ccc2NC(=O)CSC(=O)c2ccccc2)c1
inactive: A549 > 100 µM | ACHN > 100 µM | CAKI-1 18.2 µM | CCRF-CEM 79.6 µM | COLO 205 11 µM | DU-145 > 100 µM | HCT-116 48.8 µM | HOP-92 84.9 µM | IGROV-1 67.5 µM | M14 15.7 µM | MOLT-4 3.5 µM | Malme-3M 69.3 µM | NCI/ADR-RES > 100 µM | OVCAR-3 9.57 µM | OVCAR-4 6.44 µM | RXF 393 > 100 µM | SK-OV-3 41.5 µM | T47D 28.7 µM | UO-31 73.6 µM
> 100 µM: HCT-15

Cc1noc(-c2ccc(C(=O)O)[nH]2)c1Br
inactive: A549 45.2 µM | ACHN 38.3 µM | CAKI-1 34.2 µM | CCRF-CEM > 100 µM | COLO 205 26.1 µM | DU-145 37.9 µM | HCT-116 45.6 µM | HOP-92 12.2 µM | IGROV-1 16.4 µM | M14 > 100 µM | MOLT-4 > 100 µM | Malme-3M 69.8 µM | NCI/ADR-RES 50.5 µM | OVCAR-3 23.4 µM | OVCAR-4 31.8 µM | RXF 393 23.4 µM | SK-OV-3 38.6 µM | T47D 17.3 µM | UO-31 71.6 µM
> 100 µM: HCT-15

Cc1ccc([N+](=O)[O-])cc1S(=O)(=O)Nc1ccc(C2=NN(S(=O)(=O)c3cc([N+](=O)[O-])ccc3C)C(c3ccccc3O)C2)cc1 (stereo not given)
inactive: A549 82.2 µM | ACHN 80.4 µM | CAKI-1 > 100 µM | CCRF-CEM > 100 µM | COLO 205 > 100 µM | DU-145 > 100 µM | HCT-116 > 100 µM | HOP-92 49.9 µM | IGROV-1 98.9 µM | M14 > 100 µM | MOLT-4 26.7 µM | Malme-3M > 100 µM | NCI/ADR-RES 99.8 µM | OVCAR-3 67.3 µM | OVCAR-4 > 100 µM | RXF 393 36.8 µM | SK-OV-3 51.8 µM | T47D > 100 µM | UO-31 > 100 µM
> 100 µM: HCT-15

Nc1nc(=O)c2cc(NCc3ccc(C(=O)NC(CCC(=O)O)C(=O)O)cc3)ccc2[nH]1 (stereo not given)
> 100 µM: HCT-15
inactive: A549 80.7 µM | ACHN 4.31 µM | CAKI-1 34.4 µM | CCRF-CEM > 100 µM | COLO 205 > 100 µM | DU-145 > 100 µM | HCT-116 > 100 µM | HOP-92 > 100 µM | IGROV-1 > 100 µM | M14 20.8 µM | MOLT-4 > 100 µM | Malme-3M > 100 µM | NCI/ADR-RES > 100 µM | OVCAR-3 > 100 µM | OVCAR-4 > 100 µM | RXF 393 > 100 µM | SK-OV-3 > 100 µM | T47D > 100 µM | UO-31 15.1 µM

CC12CP(=O)(O)CC1C2(Cl)Cl (stereo not given)
> 100 µM: HCT-15
inactive: A549 > 100 µM | ACHN > 100 µM | CAKI-1 > 100 µM | CCRF-CEM > 100 µM | COLO 205 > 100 µM | DU-145 > 100 µM | HCT-116 > 100 µM | HOP-92 > 100 µM | IGROV-1 > 100 µM | M14 > 100 µM | MOLT-4 > 100 µM | Malme-3M > 100 µM | NCI/ADR-RES > 100 µM | OVCAR-3 > 100 µM | OVCAR-4 > 100 µM | RXF 393 > 100 µM | SK-OV-3 > 100 µM | T47D > 100 µM | UO-31 50.6 µM

O=C(CCC(C(=O)OCc1ccccc1)C(=O)OCc1ccccc1)Nc1ccc(OCc2ccccc2)cc1
14 µM: HCT-15
inactive: A549 35.9 µM | ACHN > 100 µM | CAKI-1 > 100 µM | CCRF-CEM 47.5 µM | COLO 205 41 µM | DU-145 > 100 µM | HCT-116 14.3 µM | HOP-92 > 100 µM | IGROV-1 > 100 µM | M14 > 100 µM | MOLT-4 55.6 µM | Malme-3M > 100 µM | NCI/ADR-RES 60.4 µM | OVCAR-3 > 100 µM | OVCAR-4 47.1 µM | RXF 393 49.8 µM | SK-OV-3 > 100 µM | T47D 91.6 µM | UO-31 > 100 µM

O=C(COC(c1ccc(F)cc1)c1ccc(F)cc1)N1CCN(CCCc2ccccc2)CC1
inactive: A549 3.93 µM | ACHN 3.52 µM | CAKI-1 2.05 µM | CCRF-CEM 7.62 µM | COLO 205 1.79 µM | DU-145 4.44 µM | HCT-116 2.88 µM | HOP-92 2.55 µM | IGROV-1 5.37 µM | M14 4.32 µM | MOLT-4 4.66 µM | Malme-3M 4.68 µM | NCI/ADR-RES 2.72 µM | OVCAR-3 4.29 µM | OVCAR-4 3.24 µM | RXF 393 3.22 µM | SK-OV-3 6.97 µM | T47D 3.3 µM | UO-31 1.7 µM
3.75 µM: HCT-15

COc1ccc(OC)c(CSc2ccc(OC)c(OC)c2)c1
> 73.8 µM: HCT-15
inactive: A549 > 79.4 µM | ACHN > 100 µM | CAKI-1 > 100 µM | CCRF-CEM > 100 µM | COLO 205 > 100 µM | DU-145 > 100 µM | HCT-116 > 86.9 µM | HOP-92 > 52.2 µM | IGROV-1 99.1 µM | M14 > 100 µM | MOLT-4 43.2 µM | Malme-3M > 100 µM | NCI/ADR-RES > 70.8 µM | OVCAR-3 > 63.5 µM | OVCAR-4 31.4 µM | RXF 393 > 100 µM | SK-OV-3 > 100 µM | T47D 10.6 µM | UO-31 55.3 µM

Cc1ccc(N)cc1.O=S(=O)(O)/C(=C\c1ccccc1)c1ccccc1
> 100 µM: HCT-15
inactive: A549 > 100 µM | ACHN > 100 µM | CAKI-1 > 100 µM | CCRF-CEM > 100 µM | COLO 205 > 100 µM | DU-145 > 100 µM | HCT-116 > 100 µM | HOP-92 > 100 µM | IGROV-1 > 100 µM | M14 > 100 µM | MOLT-4 > 100 µM | Malme-3M > 100 µM | NCI/ADR-RES > 100 µM | OVCAR-3 > 100 µM | OVCAR-4 > 100 µM | RXF 393 > 100 µM | SK-OV-3 > 100 µM | T47D > 100 µM | UO-31 70.6 µM

Cc1ccc(C(=N)c2ccccc2Cc2cccc3ccccc23)c2ccccc12
inactive: A549 54.3 µM | ACHN > 100 µM | CAKI-1 > 100 µM | CCRF-CEM 82.6 µM | COLO 205 22.1 µM | DU-145 > 100 µM | HCT-116 22.1 µM | HOP-92 > 100 µM | IGROV-1 > 100 µM | M14 32.3 µM | MOLT-4 58.7 µM | Malme-3M > 100 µM | NCI/ADR-RES > 100 µM | OVCAR-3 79.1 µM | OVCAR-4 > 100 µM | RXF 393 > 100 µM | SK-OV-3 > 100 µM | T47D 65.3 µM | UO-31 44.8 µM
40.6 µM: HCT-15
